In ChEMBL document CHEMBL1201862, “PubChem BioAssay data set” (2004) one finds AC50, EC50 and IC50 data, which are given here for 6 molecules.

The source made the active and inactive calls. For most assays here, no stated cut-off is given here; in the data, actives have a measured EC50 and inactives only a lower limit.

One test relates to Trypanosoma cruzi. The experiment in a line: growth inhibition of intracellular Trypanosoma cruzi, dose response, cell-based, plate reader, dry powder, set 3 (AID 493197). Type of test: functional.
The target of test [1] is Lysosomal acid glucosylceramidase (Homo sapiens, UniProt P04062). As to the kind of experiment: Dose response cell-based high throughput screening assay to identify enhancers of beta-glucosidase activity. [Related pubchem assays: 784 ]. Type of test: functional.
Sequence of Lysosomal acid glucosylceramidase (P04062 whole entry): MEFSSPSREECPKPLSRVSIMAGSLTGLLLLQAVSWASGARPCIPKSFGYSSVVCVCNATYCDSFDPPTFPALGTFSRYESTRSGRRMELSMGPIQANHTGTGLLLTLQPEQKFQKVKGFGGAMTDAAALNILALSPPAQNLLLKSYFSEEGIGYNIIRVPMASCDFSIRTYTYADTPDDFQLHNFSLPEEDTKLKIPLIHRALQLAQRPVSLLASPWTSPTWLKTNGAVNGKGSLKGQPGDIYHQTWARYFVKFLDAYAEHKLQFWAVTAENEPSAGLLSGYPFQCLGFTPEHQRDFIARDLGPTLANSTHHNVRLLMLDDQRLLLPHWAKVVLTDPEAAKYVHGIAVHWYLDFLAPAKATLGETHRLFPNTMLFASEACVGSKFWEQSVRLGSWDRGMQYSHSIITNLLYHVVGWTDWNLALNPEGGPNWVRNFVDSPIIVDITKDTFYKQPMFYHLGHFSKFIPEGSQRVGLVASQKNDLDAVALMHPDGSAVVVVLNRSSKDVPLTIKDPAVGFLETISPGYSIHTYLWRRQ
The target of another test is T1, Aminopeptidase N (Plasmodium falciparum FcB1/Columbia, UniProt O96935).
T1 sequence (O96935 whole entry): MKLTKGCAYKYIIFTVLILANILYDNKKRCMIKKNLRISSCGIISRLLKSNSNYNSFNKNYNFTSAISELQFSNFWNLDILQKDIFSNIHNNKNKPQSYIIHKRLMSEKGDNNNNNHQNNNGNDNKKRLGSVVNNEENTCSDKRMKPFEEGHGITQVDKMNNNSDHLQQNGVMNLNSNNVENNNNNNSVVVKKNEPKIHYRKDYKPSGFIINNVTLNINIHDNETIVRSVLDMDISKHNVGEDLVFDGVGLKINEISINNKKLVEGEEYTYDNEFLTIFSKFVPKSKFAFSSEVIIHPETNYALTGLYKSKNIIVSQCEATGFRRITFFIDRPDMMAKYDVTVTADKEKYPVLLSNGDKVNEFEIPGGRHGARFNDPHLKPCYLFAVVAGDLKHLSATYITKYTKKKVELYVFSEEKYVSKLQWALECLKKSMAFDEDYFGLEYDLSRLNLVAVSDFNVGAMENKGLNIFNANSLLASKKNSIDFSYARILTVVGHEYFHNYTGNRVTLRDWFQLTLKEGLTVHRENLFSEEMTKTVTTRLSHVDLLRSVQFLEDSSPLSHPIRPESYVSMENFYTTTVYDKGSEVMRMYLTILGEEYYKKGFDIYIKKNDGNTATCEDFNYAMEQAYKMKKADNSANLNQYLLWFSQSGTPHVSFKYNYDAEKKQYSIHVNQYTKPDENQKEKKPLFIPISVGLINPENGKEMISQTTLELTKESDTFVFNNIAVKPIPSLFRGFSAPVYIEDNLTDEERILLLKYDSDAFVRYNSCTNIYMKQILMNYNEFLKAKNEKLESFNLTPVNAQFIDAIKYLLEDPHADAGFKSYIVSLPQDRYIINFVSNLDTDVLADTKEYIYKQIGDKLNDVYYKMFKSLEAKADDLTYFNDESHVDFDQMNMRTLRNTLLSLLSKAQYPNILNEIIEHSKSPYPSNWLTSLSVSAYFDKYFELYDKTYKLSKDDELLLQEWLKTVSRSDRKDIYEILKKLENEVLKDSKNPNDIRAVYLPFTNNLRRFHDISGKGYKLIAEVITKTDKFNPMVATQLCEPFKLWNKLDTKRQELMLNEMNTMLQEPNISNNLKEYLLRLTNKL
As to the kind of experiment: P. falciparum M1AAP inhibitors, biochemical, fluorogenic H-Leu-NHMec substrate, 1536-well (AID 1445). On the set-up: species or system Plasmodium falciparum 3D7, 3D7.

For test [2], the target named is Transitional endoplasmic reticulum ATPase (Homo sapiens, UniProt P55072). As to the kind of experiment: p97 ATPase inhibitors, dose response, biochemical (AID 1534).
Sequence of Transitional endoplasmic reticulum ATPase (Homo sapiens, UniProt P55072) (P55072 whole entry): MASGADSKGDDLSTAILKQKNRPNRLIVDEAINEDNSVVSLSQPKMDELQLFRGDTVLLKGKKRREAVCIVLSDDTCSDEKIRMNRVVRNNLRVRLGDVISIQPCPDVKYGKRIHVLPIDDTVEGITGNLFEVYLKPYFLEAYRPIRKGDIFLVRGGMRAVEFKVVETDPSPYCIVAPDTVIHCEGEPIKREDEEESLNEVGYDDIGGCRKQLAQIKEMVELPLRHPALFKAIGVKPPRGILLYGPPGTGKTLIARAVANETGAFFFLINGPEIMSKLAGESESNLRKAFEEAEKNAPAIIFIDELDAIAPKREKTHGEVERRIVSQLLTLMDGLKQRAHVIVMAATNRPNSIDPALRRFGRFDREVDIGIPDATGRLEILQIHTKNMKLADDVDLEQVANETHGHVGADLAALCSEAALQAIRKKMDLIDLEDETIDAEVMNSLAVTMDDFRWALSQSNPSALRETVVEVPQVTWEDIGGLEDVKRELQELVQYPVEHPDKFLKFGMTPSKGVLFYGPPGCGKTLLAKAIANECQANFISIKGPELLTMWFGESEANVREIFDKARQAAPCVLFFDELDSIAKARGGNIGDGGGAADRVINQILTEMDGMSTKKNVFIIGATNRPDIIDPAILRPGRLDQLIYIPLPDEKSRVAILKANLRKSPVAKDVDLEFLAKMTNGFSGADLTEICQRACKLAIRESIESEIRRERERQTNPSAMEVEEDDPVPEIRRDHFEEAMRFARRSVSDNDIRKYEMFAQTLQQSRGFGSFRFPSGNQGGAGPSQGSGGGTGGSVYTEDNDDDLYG
In test [3] the target is Transitional endoplasmic reticulum ATPase (Homo sapiens, UniProt P55072, C522A). The experiment in a line: C522A mutant p97 ATPase inhibitors, dose response, counter-screen for p97 inhibitor project, biochemical, luminescence (AID 1544). (In general: A counterscreen serves to expose hits that act by an unwanted route or on another target.)
Sequence of Transitional endoplasmic reticulum ATPase (Homo sapiens, UniProt P55072, C522A) (P55072 2-806 C522A limits assumed): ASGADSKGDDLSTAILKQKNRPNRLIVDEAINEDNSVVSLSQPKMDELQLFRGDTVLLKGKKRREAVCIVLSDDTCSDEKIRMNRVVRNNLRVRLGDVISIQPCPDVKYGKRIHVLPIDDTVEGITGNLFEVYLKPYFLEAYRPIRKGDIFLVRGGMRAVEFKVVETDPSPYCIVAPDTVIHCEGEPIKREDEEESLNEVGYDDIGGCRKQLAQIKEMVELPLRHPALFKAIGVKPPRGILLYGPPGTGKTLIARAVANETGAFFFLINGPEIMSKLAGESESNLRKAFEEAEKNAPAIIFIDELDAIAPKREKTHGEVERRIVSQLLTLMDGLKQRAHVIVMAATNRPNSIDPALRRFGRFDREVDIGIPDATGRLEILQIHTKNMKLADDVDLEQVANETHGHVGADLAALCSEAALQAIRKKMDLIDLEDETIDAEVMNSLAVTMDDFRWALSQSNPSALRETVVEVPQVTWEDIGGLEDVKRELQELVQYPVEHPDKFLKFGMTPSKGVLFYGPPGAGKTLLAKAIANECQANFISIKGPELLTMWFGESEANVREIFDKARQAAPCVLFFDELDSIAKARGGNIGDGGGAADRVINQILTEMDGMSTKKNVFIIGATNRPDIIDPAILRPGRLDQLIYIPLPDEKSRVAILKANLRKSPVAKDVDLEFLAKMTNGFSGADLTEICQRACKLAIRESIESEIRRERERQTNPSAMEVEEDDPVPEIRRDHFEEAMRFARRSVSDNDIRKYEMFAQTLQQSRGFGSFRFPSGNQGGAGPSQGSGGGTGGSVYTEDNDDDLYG
The target in test [4] is Signal transducer and activator of transcription 3 (Homo sapiens, UniProt P40763). The experiment in a line: STAT3 activators, late-stage profile, late-stage follow-up, cell-based, STAT1 reporter, BCL3 qPCR, cytotoxicity, panel member STAT3 Activation (AID 2049). (In general: In qPCR the cycle at which signal appears reflects the starting amount.)
Sequence of Signal transducer and activator of transcription 3 (P40763 whole entry): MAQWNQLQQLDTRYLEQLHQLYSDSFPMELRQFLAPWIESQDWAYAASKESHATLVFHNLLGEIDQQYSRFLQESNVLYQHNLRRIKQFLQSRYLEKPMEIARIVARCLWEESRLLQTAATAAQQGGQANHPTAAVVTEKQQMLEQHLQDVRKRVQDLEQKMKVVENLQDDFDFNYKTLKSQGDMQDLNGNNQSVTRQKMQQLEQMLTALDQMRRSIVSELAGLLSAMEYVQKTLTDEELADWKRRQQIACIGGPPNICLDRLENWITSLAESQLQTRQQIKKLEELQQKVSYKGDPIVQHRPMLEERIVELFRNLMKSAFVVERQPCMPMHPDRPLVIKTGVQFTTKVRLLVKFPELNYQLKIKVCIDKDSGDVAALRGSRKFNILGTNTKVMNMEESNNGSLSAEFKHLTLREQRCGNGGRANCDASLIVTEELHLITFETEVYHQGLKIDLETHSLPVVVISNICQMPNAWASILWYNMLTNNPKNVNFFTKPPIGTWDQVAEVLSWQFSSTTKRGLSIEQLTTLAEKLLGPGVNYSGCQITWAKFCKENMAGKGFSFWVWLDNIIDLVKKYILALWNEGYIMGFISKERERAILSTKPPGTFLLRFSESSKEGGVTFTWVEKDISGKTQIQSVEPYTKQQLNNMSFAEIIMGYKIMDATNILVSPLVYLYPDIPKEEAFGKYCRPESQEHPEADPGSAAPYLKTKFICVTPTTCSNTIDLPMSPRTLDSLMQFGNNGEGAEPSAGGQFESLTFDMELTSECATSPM
The target of test [5] is ATP-dependent molecular chaperone HSP82 (Candida albicans (strain WO-1) (Yeast), UniProt C4YTQ8). As to the kind of experiment: loss of DOC-induced GRE-beta-galactosidase reporter signal, dose response, Hsp90 inhibitor project, S. cerevisiae, luminescence (AID 2400).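 Further: beta-galactosidase luminescence from glucocorticoid response element reporter as proxy for Hsp90 function; inhibitor potency where signal loss means Hsp90 inhibition.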 In kind it is functional, cell-based.
Sequence of ATP-dependent molecular chaperone HSP82 (C4YTQ8 whole entry): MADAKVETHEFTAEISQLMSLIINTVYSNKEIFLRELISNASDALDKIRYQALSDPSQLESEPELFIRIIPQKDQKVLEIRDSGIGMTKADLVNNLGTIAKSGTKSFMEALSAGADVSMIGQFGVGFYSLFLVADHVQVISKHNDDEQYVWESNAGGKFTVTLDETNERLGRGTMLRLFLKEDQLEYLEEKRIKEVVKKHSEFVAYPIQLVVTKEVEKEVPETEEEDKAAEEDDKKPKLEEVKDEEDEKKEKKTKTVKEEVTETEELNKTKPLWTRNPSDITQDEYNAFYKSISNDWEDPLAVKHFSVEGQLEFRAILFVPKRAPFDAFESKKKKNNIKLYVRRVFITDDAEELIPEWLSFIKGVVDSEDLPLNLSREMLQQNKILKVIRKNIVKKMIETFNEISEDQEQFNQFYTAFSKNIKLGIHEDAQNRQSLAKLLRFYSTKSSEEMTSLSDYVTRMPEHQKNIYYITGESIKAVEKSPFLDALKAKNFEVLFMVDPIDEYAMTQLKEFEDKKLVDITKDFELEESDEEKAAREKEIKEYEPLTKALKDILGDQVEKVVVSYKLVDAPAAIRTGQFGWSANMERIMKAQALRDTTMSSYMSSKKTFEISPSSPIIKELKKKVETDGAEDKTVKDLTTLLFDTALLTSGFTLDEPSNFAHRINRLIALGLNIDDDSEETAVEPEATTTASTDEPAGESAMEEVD
Another test concerns the target T2, Streptokinase A (Streptococcus pyogenes serotype M1, UniProt P10520).
T2 sequence (P10520 whole entry): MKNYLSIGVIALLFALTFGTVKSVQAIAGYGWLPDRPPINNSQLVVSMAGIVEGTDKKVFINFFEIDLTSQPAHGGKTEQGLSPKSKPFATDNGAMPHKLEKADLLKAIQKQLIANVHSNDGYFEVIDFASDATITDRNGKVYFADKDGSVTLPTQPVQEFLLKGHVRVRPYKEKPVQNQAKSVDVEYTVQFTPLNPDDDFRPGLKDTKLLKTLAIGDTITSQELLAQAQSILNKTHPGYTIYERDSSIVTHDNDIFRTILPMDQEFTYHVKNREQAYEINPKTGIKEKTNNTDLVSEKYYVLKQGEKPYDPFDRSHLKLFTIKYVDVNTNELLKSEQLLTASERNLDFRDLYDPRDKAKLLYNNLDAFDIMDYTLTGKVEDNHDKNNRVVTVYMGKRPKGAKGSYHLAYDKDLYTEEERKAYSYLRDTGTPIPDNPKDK
The experiment in a line: S. pyogenes streptokinase expression inhibitors, potency, dose response, plasminogen activation absorbance, OD405 (AID 1914).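 Further: secreted streptokinase activity via plasminogen activation per viability signal from cell pellet.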 Type of test: functional, Streptococcus pyogenes M1 GAS.

Test [6] has as its target T3, Serine/threonine-protein phosphatase (Candida dubliniensis (strain CD36 / CBS 7987 / NCPF 3949 / NRRLY-17841) (Yeast), UniProt B9W6M3).
T3 sequence (B9W6M3 whole entry): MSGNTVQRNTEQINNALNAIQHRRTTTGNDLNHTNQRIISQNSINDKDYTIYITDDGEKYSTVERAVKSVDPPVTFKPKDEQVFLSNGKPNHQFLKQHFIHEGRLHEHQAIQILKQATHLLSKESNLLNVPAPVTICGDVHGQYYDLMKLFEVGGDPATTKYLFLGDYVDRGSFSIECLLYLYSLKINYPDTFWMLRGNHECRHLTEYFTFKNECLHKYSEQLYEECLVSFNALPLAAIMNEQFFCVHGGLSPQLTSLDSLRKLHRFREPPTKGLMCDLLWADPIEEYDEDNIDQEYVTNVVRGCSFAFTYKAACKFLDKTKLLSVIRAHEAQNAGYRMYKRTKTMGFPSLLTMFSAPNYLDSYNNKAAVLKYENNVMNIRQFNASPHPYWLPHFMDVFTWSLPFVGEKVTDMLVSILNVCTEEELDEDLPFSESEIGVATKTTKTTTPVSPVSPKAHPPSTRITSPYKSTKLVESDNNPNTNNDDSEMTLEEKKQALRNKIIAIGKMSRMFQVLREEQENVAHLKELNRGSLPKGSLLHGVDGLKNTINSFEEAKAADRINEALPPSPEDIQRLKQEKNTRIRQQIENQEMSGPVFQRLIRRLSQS
As to the kind of experiment: calcineurin pathway inhibitors in yeast reporter, dose response, S. cerevisiae, CDRE-lacZ, luminescence, secondary (AID 2388).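 Further: yeast reporter cells carrying a calcineurin-responsive lacZ construct stimulated with calcium chloride; luminescent beta-galactosidase reporter signal in whole cells rather than isolated phosphatase activity; potency for inhibition where a drop in reporter signal means calcineurin blockade.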 Type of test: functional, cell-based.

The nature of test [7]: NIH-3T3 fibroblast cytotoxicity, dose response, cytotoxicity control, cell-based, fluorescence, Alamar Blue, secondary assay (AID 2327).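 Further: NIH-3T3 mouse fibroblasts cultured with fluconazole at 8 µg/mL.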 In kind it is functional.
A short description of test [8]: inhibitors of SNCA 5'UTR-driven translation, confirmation, luminescence, H4 neuroglioblastoma cells, dose confirmation (AID 2454).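 Further: H4 neuroglioblastoma cells carrying an alpha-synuclein 5'UTR luciferase reporter; potency for inhibition of the luciferase signal.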 In kind it is functional, cell-based.
Test [9] has as its target G-protein coupled receptor 55 (Homo sapiens, UniProt Q9Y2T6). As to the kind of experiment: GPR55 agonists via beta-arrestin recruitment, primary screen, imaging, U2OS cells, beta-arrestin-GFP redistribution (AID 1961). Type of test: functional. For orientation: Recruitment of arrestin is a read-out of receptor activation apart from second messengers.
Test [10] deals with Streptococcus sp. 'group A'. As to the kind of experiment: growth inhibition of control SK(-) GAS strain, dose response, counter-screen for streptokinase expression inhibitor project, luminescence, kanamycin, BacTiterGlo, confirmation (AID 1900). Type of test: functional, organism-based.
Another test can be described thus: cells. Type of test: functional, cell-based.
Another test relates to INS1. As to the kind of experiment: beta cell apoptosis inhibitors, cytokine rescue, dose response, luminescence, retest (AID 449756).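 Further: cell death triggered by IL-1 beta plus TNF-alpha plus IFN-gamma mixture; protective hits raise ATP signal compared with cytokine alone wells.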 Type of test: functional, cell-based. The note with it: Rattus norvegicus.
A short description of test [11]: C. albicans growth with fluconazole, confirmation, fluorescence, retest (AID 2467). Type of test: functional, cell-based.
Another test deals with Streptococcus. The experiment in a line: Group A Streptococcus viability loss, dose response, counter-screen for streptokinase expression inhibitor project, luminescence, BacTiterGlo (AID 1915).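 Further: potency for reduction of bacterial viability or growth.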 Type of test: functional, organism-based.
Test [12] in a line: luciferase reporter signal reduction – luminescence, H4-C neuroglioblastoma cells, dose response (AID 2458).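 Further: H4 neuroglioblastoma cells stably carrying a luciferase reporter gene fusion.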 In kind it is functional, cell-based.
The nature of test [13]: inhibitors of SNCA 5'UTR-driven reporter translation, confirmation, H4 neuroglioma cells, luminescence (AID 1988). Type of test: functional, cell-based.
A short description of test [14]: inhibitors of intracellular T. cruzi replication, confirmation, NIH3T3 host cells, beta-gal luminescence (AID 2044).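 Further: intracellular parasites grown in NIH/3T3 mouse fibroblasts as host cells; luminescent beta-galactosidase reporter signal from transgenic T. cruzi replicating inside host cells; inhibitors lower the luminescence signal.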 Type of test: functional, cell-based.
Test [15] can be described thus: cytotoxicity toward NIH3T3 fibroblasts, dose response, counter-screen, cell-based, ATP luminescence, mouse fibroblasts (AID 2010).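 Further: cells exposed to compound for about 90 hours before reading.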 Type of test: functional.
The target of test [16] is T4, Alkaline phosphatase, tissue-nonspecific isozyme (Homo sapiens, UniProt P05186).
T4 sequence (P05186 whole entry): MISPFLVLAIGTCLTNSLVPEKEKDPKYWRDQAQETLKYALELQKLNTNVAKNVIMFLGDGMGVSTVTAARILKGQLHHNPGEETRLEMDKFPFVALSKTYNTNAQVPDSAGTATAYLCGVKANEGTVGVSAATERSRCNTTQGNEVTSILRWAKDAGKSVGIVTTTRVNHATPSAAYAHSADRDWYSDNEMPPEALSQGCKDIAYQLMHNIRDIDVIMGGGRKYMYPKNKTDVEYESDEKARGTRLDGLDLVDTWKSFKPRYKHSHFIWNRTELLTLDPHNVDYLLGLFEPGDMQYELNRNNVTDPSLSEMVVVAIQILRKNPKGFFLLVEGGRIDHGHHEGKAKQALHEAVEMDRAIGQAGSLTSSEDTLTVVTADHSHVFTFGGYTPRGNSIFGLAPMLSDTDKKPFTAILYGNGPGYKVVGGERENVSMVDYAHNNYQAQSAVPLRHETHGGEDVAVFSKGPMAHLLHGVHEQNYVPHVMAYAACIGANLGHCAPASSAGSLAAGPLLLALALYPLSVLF

Sequence of G-protein coupled receptor 55 (Q9Y2T6 whole entry): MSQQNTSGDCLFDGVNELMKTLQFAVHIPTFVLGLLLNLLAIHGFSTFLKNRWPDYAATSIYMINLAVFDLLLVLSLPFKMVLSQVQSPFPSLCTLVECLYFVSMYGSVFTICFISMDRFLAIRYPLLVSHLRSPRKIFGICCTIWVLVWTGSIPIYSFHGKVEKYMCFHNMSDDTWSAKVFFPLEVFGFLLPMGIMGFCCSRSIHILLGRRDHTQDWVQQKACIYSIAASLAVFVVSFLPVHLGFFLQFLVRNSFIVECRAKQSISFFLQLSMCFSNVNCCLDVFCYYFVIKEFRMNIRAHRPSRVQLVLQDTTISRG

Regarding `CCCN1CCC(N2CCCC(C(=O)N(C)CCc3ccc(OC)c(OC)c3)C2)CC1` (configuration not stated), the AC50 (commonly the concentration at which the activity in the assay is half-maximal) with Trypanosoma cruzi was 16.4 µM (active).

Turning to `CC(C)n1c(S)nc2c1c(=O)[nH]c(=O)n2C`, the EC50 – broadly, the concentration giving half of the maximal effect – in test [1] is recorded as > 50 µM (not active).

Turning to `COc1ccccc1C(=O)Oc1cc(N)n(S(=O)(=O)c2ccc(C)cc2)n1`, the IC50 – broadly, the concentration needed to halve the response being measured – is 99.9 µM (active) at Aminopeptidase N, > 50 µM (not active) in test [2] and > 50 µM (not active) in [3].

As to `CCCc1cc(C(=O)Nc2cc(OC)c(Cl)cc2OC)no1`, the EC50 in test [4] is 0.00815 µM (active).

On to `CC1CCN(Cc2c(C(=O)N/N=C/c3cc(Br)ccc3O)nnn2-c2nonc2N)CC1`, for which the EC50 in test [5] was > 160 µM (inactive); on Streptokinase A, 40.3 µM (inconclusive); in [6], > 180 µM (inactive); in test [7], 35.2 µM (inconclusive); in [8], > 12 µM (not active); in test [9], 1.63 µM (active). The EC50 in test [10] is 4.79 µM (active); in the test “cells”, 0.982 µM (active); in test [11] it was 0.622 µM (active); in the test with Streptococcus it was 8.29 µM (active); in [12] it was 1.79 µM (active); in [13], < 0.1 µM (active). In addition, the EC50 in test [14] was 0.556 µM (active); in [15], 5.24 µM (active). Moreover, the AC50 with INS1 is 0.365 µM (active).

For the molecule `CCC(C)N1CC(=O)C(c2nc3ccccc3[nH]2)=C1N` (configuration not stated), the 50% effective concentration (EC50) in test [16] was 98.9 µM (not active).
